Results published in the NIST ThermoML archive (doi:10.1016/j.jct.2015.03.017).
Numbers after ± are expanded uncertainties.

Experiment: mn = molality of the nth substance listed, in mol/kg
Conditions: 74.66 kPa, Liquid; for speed of sound: Frequency=3 MHz, Sing-around technique in a fixed-path interferometer; for mass density: Vibrating tube method

CC(C)C[N+](CC(C)C)(CC(C)C)CC(C)C.[Br-] [tetra-iso-butyl ammonium bromide] + O
Conditions | mass density, 278.15 K [kg/m3] | mass density, 283.15 K [kg/m3] | mass density, 288.15 K [kg/m3] | mass density, 293.15 K [kg/m3] | speed of sound, 278.15 K [m/s] | speed of sound, 283.15 K [m/s] | speed of sound, 288.15 K [m/s] | speed of sound, 293.15 K [m/s] | speed of sound, 298.15 K [m/s]
m1 = 0.01022 | 1000.51 ± 0.12 | 1000.24 ± 0.12 | 999.634 ± 0.12 | 998.735 ± 0.12 | – | – | – | – | –
m1 = 0.02021 | 1001.05 ± 0.12 | 1000.77 ± 0.12 | 1000.16 ± 0.12 | 999.258 ± 0.12 | 1434 ± 1.2 | 1454.4 ± 1.2 | 1472.5 ± 1.2 | 1488.5 ± 1.2 | 1502.6 ± 1.2
m1 = 0.02983 | 1001.57 ± 0.12 | 1001.29 ± 0.12 | 1000.67 ± 0.12 | 999.758 ± 0.12 | 1437 ± 1.2 | 1457 ± 1.2 | 1475 ± 1.2 | 1490.5 ± 1.2 | 1503.3 ± 1.2
m1 = 0.03847 | 1002.04 ± 0.12 | 1001.75 ± 0.12 | 1001.12 ± 0.12 | 1000.21 ± 0.12 | 1438.5 ± 1.2 | 1458.5 ± 1.2 | 1476.2 ± 1.2 | 1491.8 ± 1.2 | 1505.5 ± 1.2
m1 = 0.04829 | 1002.57 ± 0.12 | 1002.27 ± 0.12 | 1001.63 ± 0.12 | 1000.71 ± 0.12 | 1441.3 ± 1.2 | 1461.2 ± 1.2 | 1478.9 ± 1.2 | 1494.5 ± 1.2 | 1508.1 ± 1.2
m1 = 0.05621 | 1002.99 ± 0.12 | 1002.68 ± 0.12 | 1002.04 ± 0.12 | 1001.11 ± 0.12 | 1443.4 ± 1.2 | 1463.6 ± 1.2 | 1480.5 ± 1.2 | 1495.7 ± 1.2 | 1509.7 ± 1.2
m1 = 0.06888 | 1003.67 ± 0.12 | 1003.34 ± 0.12 | 1002.7 ± 0.12 | 1001.76 ± 0.12 | 1447 ± 1.2 | 1466.5 ± 1.2 | 1483.8 ± 1.2 | 1498.9 ± 1.2 | 1512.2 ± 1.2
m1 = 0.07666 | 1004.08 ± 0.12 | 1003.76 ± 0.12 | 1003.1 ± 0.12 | 1002.16 ± 0.12 | 1448.2 ± 1.2 | 1467.5 ± 1.2 | 1484.6 ± 1.2 | 1499.7 ± 1.2 | 1512.9 ± 1.2
m1 = 0.08623 | 1004.6 ± 0.12 | 1004.26 ± 0.12 | 1003.6 ± 0.12 | 1002.64 ± 0.12 | 1451.5 ± 1.2 | 1469.4 ± 1.2 | 1486.2 ± 1.2 | 1500.9 ± 1.2 | 1513.8 ± 1.2
m1 = 0.1002 | 1005.35 ± 0.12 | 1005 ± 0.12 | 1004.33 ± 0.12 | 1003.37 ± 0.12 | 1453.7 ± 1.2 | 1472.5 ± 1.2 | 1489.2 ± 1.2 | 1503.9 ± 1.2 | 1516.7 ± 1.2

CCC(C)[N+](C(C)CC)(C(C)CC)C(C)CC.[Br-] (stereo unspecified) [tetra-sec-butyl ammonium bromide] + O
Conditions | mass density, 278.15 K [kg/m3] | mass density, 283.15 K [kg/m3] | mass density, 288.15 K [kg/m3] | mass density, 293.15 K [kg/m3] | speed of sound, 278.15 K [m/s] | speed of sound, 283.15 K [m/s] | speed of sound, 288.15 K [m/s] | speed of sound, 293.15 K [m/s] | speed of sound, 298.15 K [m/s]
m1 = 0.009699 | 1000.43 ± 0.12 | 1000.15 ± 0.12 | 999.553 ± 0.12 | 998.653 ± 0.12 | 1429.9 ± 1.2 | 1450.7 ± 1.2 | 1469 ± 1.2 | 1485.1 ± 1.2 | 1499 ± 1.2
m1 = 0.01981 | 1000.92 ± 0.12 | 1000.64 ± 0.12 | 1000.03 ± 0.12 | 999.127 ± 0.12 | 1432.6 ± 1.2 | 1453.1 ± 1.2 | 1471.2 ± 1.2 | 1487.4 ± 1.2 | 1500.9 ± 1.2
m1 = 0.03014 | – | – | – | – | 1435.2 ± 1.2 | 1455.5 ± 1.2 | 1473.4 ± 1.2 | 1489.2 ± 1.2 | 1503 ± 1.2
m1 = 0.04066 | 1002 ± 0.12 | 1001.68 ± 0.12 | 1001.04 ± 0.12 | 1000.12 ± 0.12 | 1438.2 ± 1.2 | 1458.2 ± 1.2 | 1475.9 ± 1.2 | 1491.5 ± 1.2 | 1505.2 ± 1.2
m1 = 0.04983 | 1002.49 ± 0.12 | 1002.14 ± 0.12 | 1001.5 ± 0.12 | 1000.59 ± 0.12 | 1440.2 ± 1.2 | 1460.1 ± 1.2 | 1477.6 ± 1.2 | 1493.1 ± 1.2 | 1506.5 ± 1.2
m1 = 0.0598 | 1003.02 ± 0.12 | 1002.66 ± 0.12 | 1002 ± 0.12 | 1001.08 ± 0.12 | 1443.3 ± 1.2 | 1463 ± 1.2 | 1480.4 ± 1.2 | 1495.4 ± 1.2 | 1508.3 ± 1.2
m1 = 0.07027 | 1003.58 ± 0.12 | 1003.21 ± 0.12 | 1002.55 ± 0.12 | 1001.63 ± 0.12 | 1445.7 ± 1.2 | 1465.7 ± 1.2 | 1483.2 ± 1.2 | 1497.7 ± 1.2 | 1510.9 ± 1.2
m1 = 0.07997 | 1004.11 ± 0.12 | 1003.75 ± 0.12 | 1003.08 ± 0.12 | 1002.12 ± 0.12 | 1448.5 ± 1.2 | 1468.4 ± 1.2 | 1485 ± 1.2 | 1499.7 ± 1.2 | 1512 ± 1.2
m1 = 0.08984 | 1004.68 ± 0.12 | 1004.31 ± 0.12 | 1003.61 ± 0.12 | 1002.64 ± 0.12 | 1451.4 ± 1.2 | 1471.3 ± 1.2 | 1488 ± 1.2 | 1501.6 ± 1.2 | 1514.2 ± 1.2
m1 = 0.1018 | 1005.32 ± 0.12 | 1004.97 ± 0.12 | 1004.26 ± 0.12 | 1003.28 ± 0.12 | 1454.9 ± 1.2 | 1474.9 ± 1.2 | 1490.9 ± 1.2 | 1504 ± 1.2 | 1516 ± 1.2

CCCC[N+](CCCC)(CCCC)CCCC.[Br-] [tetrabutylammonium bromide] + O
Conditions | mass density, 278.15 K [kg/m3] | mass density, 283.15 K [kg/m3] | mass density, 288.15 K [kg/m3] | mass density, 293.15 K [kg/m3] | speed of sound, 278.15 K [m/s] | speed of sound, 283.15 K [m/s] | speed of sound, 288.15 K [m/s] | speed of sound, 293.15 K [m/s] | speed of sound, 298.15 K [m/s]
m1 = 0.01142 | 1000.27 ± 0.11 | 999.991 ± 0.11 | 999.38 ± 0.11 | 998.474 ± 0.11 | 1432 ± 1.2 | 1452.5 ± 1.2 | 1470.9 ± 1.2 | 1487.1 ± 1.2 | 1501.3 ± 1.2
m1 = 0.02179 | 1000.55 ± 0.11 | 1000.26 ± 0.11 | 999.637 ± 0.11 | 998.721 ± 0.11 | – | – | – | – | –
m1 = 0.02564 | 1000.66 ± 0.11 | 1000.36 ± 0.11 | 999.733 ± 0.11 | 998.812 ± 0.11 | 1436.7 ± 1.2 | 1457.5 ± 1.2 | 1475.5 ± 1.2 | 1491.3 ± 1.2 | 1504.8 ± 1.2
m1 = 0.03767 | 1000.97 ± 0.11 | 1000.66 ± 0.11 | 1000.02 ± 0.11 | 999.087 ± 0.11 | 1439.6 ± 1.2 | 1459.7 ± 1.2 | 1477.4 ± 1.2 | 1492.9 ± 1.2 | 1506.4 ± 1.2
m1 = 0.0459 | 1001.19 ± 0.11 | 1000.87 ± 0.11 | 1000.23 ± 0.11 | 999.287 ± 0.11 | 1442.7 ± 1.2 | 1462.5 ± 1.2 | 1480.1 ± 1.2 | 1495.5 ± 1.2 | 1508.9 ± 1.2
m1 = 0.05856 | 1001.55 ± 0.11 | 1001.21 ± 0.11 | 1000.54 ± 0.11 | 999.585 ± 0.11 | 1446.1 ± 1.2 | 1465.7 ± 1.2 | 1482.9 ± 1.2 | 1498.1 ± 1.2 | 1511.7 ± 1.2
m1 = 0.0711 | 1001.86 ± 0.11 | 1001.51 ± 0.11 | 1000.83 ± 0.11 | 999.857 ± 0.11 | 1450 ± 1.2 | 1469.4 ± 1.2 | 1486.4 ± 1.2 | 1501.3 ± 1.2 | 1514.3 ± 1.2
m1 = 0.07968 | 1002.09 ± 0.11 | 1001.73 ± 0.11 | 1001.04 ± 0.11 | 1000.05 ± 0.11 | 1453 ± 1.2 | 1472.2 ± 1.2 | 1489.1 ± 1.2 | 1504 ± 1.2 | 1516.9 ± 1.2
m1 = 0.09066 | 1002.42 ± 0.11 | 1002.04 ± 0.11 | 1001.33 ± 0.11 | 1000.34 ± 0.11 | 1455.7 ± 1.2 | 1474.4 ± 1.2 | 1491 ± 1.2 | 1505.4 ± 1.2 | 1517.9 ± 1.2
m1 = 0.1003 | 1002.67 ± 0.11 | 1002.28 ± 0.11 | 1001.54 ± 0.11 | 1000.54 ± 0.11 | 1458 ± 1.2 | 1476.6 ± 1.2 | 1493 ± 1.2 | 1507.3 ± 1.2 | 1519.7 ± 1.2
